In PubChem BioAssay (NCI) one finds GI50 and TGI data, which are given here for eight molecules.

Some test systems named below: UO-31 renal; RXF 393 renal; COLO 205 colon; MCF7 breast; HCT-116 colon; A549 NSCLC; BT-549 breast; SNB-75 CNS; SN12C renal; T-47D breast.
Common to all, as to assay: DTP human tumour cell line panel, 48 h

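Compound exposure: 48 hours, 5 concentrations, 96-well plates. The concentration for 50% growth inhibition is given as GI50. TGI: concentration producing complete growth inhibition.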 Bounds are passed on as bounds.

With `COc1ncnc(NS(=O)(=O)c2ccc(N=C3C(=O)N(CN4CCN(c5c(F)cc6c(=O)c(C(=O)O)cn(C7CC7)c6c5OC)CC4C)c4ccc(Br)cc43)cc2)c1OC` (configuration not stated), the GI50 was over 50 µM with UO-31 renal; 12.9 µM in the test on RXF 393 renal; 10.8 µM in the test with COLO 205 colon; 7.1 µM in the test with MCF7 breast; 9.96 µM in the test with HCT-116 colon; 4.78 µM with A549 NSCLC. Besides, the GI50 with BT-549 breast is 6.57 µM; with SNB-75 CNS, over 50 µM; in the test on SN12C renal it was 10.1 µM. In addition, the TGI was over 50 µM in the test on UO-31 renal; 33 µM with RXF 393 renal; 39.9 µM with COLO 205 colon; 41.9 µM with MCF7 breast; over 50 µM in the test with HCT-116 colon; over 50 µM with A549 NSCLC. The total growth inhibition concentration (TGI) in the test with BT-549 breast was 19.9 µM; with SNB-75 CNS, over 50 µM; in the test on SN12C renal, 23.4 µM.

Take `O=C(CCCCCCN1CC(=O)N2[C@@H](c3ccc(Cl)c(Cl)c3)c3[nH]c4ccccc4c3C[C@H]2C1=O)NO`: the GI50 is 1.58 µM in the test on T-47D breast; 3.52 µM with UO-31 renal; 1.73 µM in the test on RXF 393 renal; 3.5 µM with COLO 205 colon; 1.87 µM with MCF7 breast; 1.47 µM in the test on HCT-116 colon. The GI50 with A549 NSCLC was 4.99 µM; with BT-549 breast, 4.41 µM; in the test on SNB-75 CNS it was 0.832 µM; in the test on SN12C renal, 4.33 µM. Moreover, the TGI in the test with T-47D breast was determined as 25.2 µM; in the test with UO-31 renal, 8.86 µM; in the test with RXF 393 renal, 6.04 µM; with COLO 205 colon, 10.1 µM; in the test with MCF7 breast, 15 µM; in the test on HCT-116 colon it was 6.92 µM. Moreover, the TGI in the test on A549 NSCLC worked out at 13.6 µM; in the test with BT-549 breast, 14.2 µM; in the test on SNB-75 CNS it was 7 µM; in the test with SN12C renal, 14.5 µM.

For the molecule `O=C(CC1(O)C(=O)N(Cc2ccccc2)c2ccccc21)c1ccc(C(=O)NCC2CCC3(CC2)OOC2(CCCCC2)OO3)cc1` (configuration not stated), the GI50 in the test on T-47D breast is 1.41 µM; with UO-31 renal, 0.176 µM; in the test with RXF 393 renal, 0.705 µM; in the test on COLO 205 colon, 1.93 µM; in the test with MCF7 breast, 2.43 µM; in the test with HCT-116 colon, 2.29 µM. Also, the 50% growth inhibitory concentration (GI50) in the test with A549 NSCLC is 0.201 µM; in the test on BT-549 breast, 1.88 µM; in the test on SNB-75 CNS, 1.58 µM; with SN12C renal it was 1.66 µM. The TGI in the test on T-47D breast turned out to be 4.04 µM; in the test on UO-31 renal, 0.338 µM; in the test on RXF 393 renal, 1.98 µM; with COLO 205 colon, 4.51 µM; with MCF7 breast, 10.5 µM; with HCT-116 colon, 6.13 µM. Moreover, the TGI in the test on A549 NSCLC turned out to be 0.458 µM; in the test on BT-549 breast, 4.03 µM; with SNB-75 CNS, 3.44 µM; with SN12C renal, 3.76 µM.

Consider `CCc1cccc(C)c1NC(=O)c1sc2nc3c(cc2c1N)C(=O)CCC3`, for which the GI50 in the test on T-47D breast is 0.665 µM; with UO-31 renal it was 2.25 µM; in the test with COLO 205 colon, 0.35 µM; with MCF7 breast, 0.396 µM; in the test on HCT-116 colon, 0.564 µM; in the test on A549 NSCLC, 0.652 µM. Moreover, the GI50 in the test on BT-549 breast is 8.58 µM; in the test on SNB-75 CNS it was 0.527 µM; with SN12C renal it was 0.909 µM. The total growth inhibition concentration (TGI) in the test with T-47D breast was over 78.5 µM; in the test with UO-31 renal, 99.8 µM; with COLO 205 colon, 1.51 µM; in the test on MCF7 breast it was over 91.4 µM; in the test with HCT-116 colon, over 100 µM; in the test with A549 NSCLC, over 100 µM. The TGI in the test on BT-549 breast, in the test on SNB-75 CNS and in the test on SN12C renal was over 100 µM each time.

With `COC(=O)c1cc2c(cc1Cl)SC1=NN(C)C(N(C)C)N1S2(=O)=O` (configuration not stated), the GI50 in the test on T-47D breast, with UO-31 renal, with COLO 205 colon, in the test on MCF7 breast, in the test with HCT-116 colon and in the test with A549 NSCLC was over 100 µM each time. Also, the GI50 in the test with BT-549 breast, in the test on SNB-75 CNS and in the test with SN12C renal was over 100 µM each time. The TGI with T-47D breast, with UO-31 renal, with COLO 205 colon, with MCF7 breast, in the test on HCT-116 colon and in the test on A549 NSCLC was over 100 µM throughout. The TGI in the test with BT-549 breast, with SNB-75 CNS and in the test with SN12C renal was over 100 µM throughout.

As to `COc1ccc(NC(=O)C2CCC(CNS(=O)(=O)c3ccccc3)CC2)cc1OC` (configuration not stated), the GI50 with UO-31 renal, with RXF 393 renal, with MCF7 breast, with HCT-116 colon, in the test on A549 NSCLC and in the test with BT-549 breast was over 100 µM throughout. For the same molecule, the GI50 in the test with SN12C renal was 2.69 µM. For the same molecule, the TGI with UO-31 renal, in the test on RXF 393 renal, in the test on MCF7 breast, in the test on HCT-116 colon, with A549 NSCLC and in the test with BT-549 breast was over 100 µM throughout. The same molecule displayed a concentration for total growth inhibition (TGI) in the test with SN12C renal of 69.5 µM.

Regarding `COc1cc2c(cc1OCCCCN1CCN(C(=S)SCCC(C#N)(c3ccccc3)c3ccccc3)CC1)N=C[C@@H]1CCCN1C2=O`, the GI50 in the test on T-47D breast is 0.578 µM; in the test on UO-31 renal it was 0.593 µM; with RXF 393 renal, 0.414 µM; with COLO 205 colon, 1.4 µM; in the test with MCF7 breast it was 0.435 µM; with BT-549 breast, 1.42 µM. The GI50 in the test on SNB-75 CNS is 1.64 µM; in the test with SN12C renal, 1.16 µM. Besides, the TGI is over 100 µM in the test with T-47D breast; 2.09 µM with UO-31 renal; 2.01 µM with RXF 393 renal; 5.66 µM in the test with COLO 205 colon; 2.23 µM in the test with MCF7 breast; 8.84 µM with BT-549 breast. Moreover, the TGI worked out at 3.68 µM with SNB-75 CNS and 4.54 µM in the test with SN12C renal.

Consider `Cc1cc(C)nc(SC2=C(Nc3cc(Cl)ccc3O)C(=O)N(Cc3ccccc3)C2=O)n1`, for which the GI50 in the test with T-47D breast was 15 µM; in the test with UO-31 renal it was 80.7 µM; in the test on RXF 393 renal it was 4.03 µM; in the test with COLO 205 colon, 36.4 µM; in the test on MCF7 breast, 20.5 µM; in the test with HCT-116 colon it was 31.4 µM. The GI50 was 30.7 µM in the test on A549 NSCLC, 63 µM in the test on BT-549 breast and 21.8 µM with SNB-75 CNS. Besides, the TGI is 63.2 µM in the test on T-47D breast; over 160 µM with UO-31 renal; 17.2 µM in the test on RXF 393 renal; 90.7 µM in the test with COLO 205 colon; 109 µM in the test on MCF7 breast; over 160 µM in the test with HCT-116 colon. For the same molecule, the TGI in the test on A549 NSCLC is over 160 µM; with BT-549 breast it was over 160 µM; in the test with SNB-75 CNS, 104 µM.

One may read the GI50 as the concentration at which growth is held to half of that of the control. A word on the TGI: it is the concentration at which net growth stops.
